The subject of series [1] is COX-2. Kind of series: COX-2 protein expression in LPS-stimulated RAW 264.7 macrophages (western blot). As to conditions: LPS 100 ng/ml, RAW 264.7, western blot. It counts as cell-based, murine. The procedure:
RAW 264.7 cells were cultured in Rosewell Park Memorial Institute (RPMI) 1640 media (without phenol red) supplemented with 10% endotoxin-free, heat-inactivated fetal calf serum, 100 units/ml penicillin, and 100 μg/ml streptomycin. When the cells reached a density of 2-3×10^6 cells/ml, they were activated by incubation in a medium containing E. coli lipopolysaccharide (LPS) (100 ng/ml). Various concentrations of compounds of the disclosure in dimethyl sulphoxide (DMSO) were added together with LPS. Cells were treated with 0.05% DMSO as the vehicle control. The stimulated murine macrophage cell line RAW 264.7 cells were washed with PBS and lysed in an ice-cold RIPA buffer (Tris-HCl, pH 7.2, 25 mM; 0.1% SDS; 1% Triton X-100; 1% sodium deoxycholate; 0.15 M NaCl; 1 mM EDTA) containing 1 mM phenylmethyl sulphonyl fluoride (PMSF), 10 μg/mL aprotinin, 1 mM sodium ortho-vanadate, and 5 μg/mL leupeptin. Protein concentrations were determined using the BCA method (Pierce, Rockford, Ill.). The samples (50 μg of protein) were mixed with 5-fold of sample buffer containing 0.3 M Tris-HCl (pH 6.8), 25% 2-mercaptoethanol, 12% sodium dodecyl sulphate (SDS), 25 mM EDTA, 20% glycerol, and 0.1% bromophenol blue. The mixtures were boiled at 100° C. for 5 min, prerun on a stacking gel, and then resolved by 12% SDS-polyacrylamide minigels at a constant current of 20 mA. For western blot, proteins on the gel were electro-transferred onto a […] immobile polyvinylidene fluoride (PVDF) membrane with a transfer buffer composed of 25 mM Tris-HCl (pH 8.9), 192 mM glycine, and 20% methanol, as described by Pan et al. (2000). Membrane blocking was then carried out at room temperature for 1 h in blocking solution (20 mM Tris-HCl pH 7.4, 125 mM NaCl, 0.2% Tween 20, 1% bovine serum albumin, and 0.1% sodium azide). The membrane was incubated with the primary antibody of iNOS and COX-2 at 4° C. overnight. The membranes were subsequently probed with selected IgG antibody conjugated to horseradish peroxidase (Transduction Laboratories, Lexington, Ky.) and visualized using enhanced chemiluminescence (ECL, Amersham). The densities of the bands were quantitated using a densitometer (AlphaImager 2200 System). All the membranes were stripped and reprobed for β-actin (Sigma Chemical Co., St. Louis, Mo.) as loading control. […] The inhibition of iNOS induction by compounds of the disclosure may be due to down regulation of iNOS gene expression. EGCG and compounds of the disclosure with antioxidant activities may inhibit the ROS/RNS-mediated activation of NF-κB, the transcription factor that promotes gene expression of iNOS. […] The difference in their ability to inhibit production of iNOS and COX-2 may be due to other mechanisms involved in addition to blocking the NF-κB signalling pathway. EGCG and its derivatives may also suppress the cytokine production by breaking down the mRNA and protein of iNOS and COX-2 to varied degrees. (7b) Inhibition Against LPS-Induced NO Production in RAW 264.7 Macrophage The LPS-induced NO production by the macrophages was determined as nitrite concentration in the culture medium according to the Griess reaction. The culture medium of the control and treated cells was collected and centrifuged. An aliquot (100 μL) of the supernatant was mixed with an equal volume of Griess reagent. The absorbance of the mixture at 550 nm was measured with an ELISA plate reader (Dynatech MR-7000; Dynatech Laboratories, Chantilly, Va., USA). […]
For orientation: Immunoblotting shows a protein as a band on a membrane.

The nature of series [2]: TBARS formation in cooked pork model system. As to conditions: 80 μmol/kg meat, stored at 4° C. The procedure: Fresh ground pork (40 g) was mixed with deionized water (10 g) in a Mason jar. Samples and reference antioxidant compound (BHA) dissolved in ethanol were added to meat at a level of 80 μmol/kg. A control without any antioxidant was also prepared. The content was thoroughly mixed and cooked at 80° C. in a thermostated water bath for 40 min with intermittent stirring. The cooked meat was cooled to room temperature and homogenized with a Polytron PT 3000 (Brinkmann Instruments, Rexdale, ON) homogenizer. The homogenate was then transferred into plastic bags and stored at 4° C. for 14 days. […].
TBARS values were determined as described by Shahidi and Hong (Shahidi, F. and Hong, C. Evaluation of malonaldehyde as a marker of oxidative rancidity in meat products. J. Food Biochem. 15, 97-105, 1991).
A series of TMP (1,1,3,3-tetramethoxypropane) standard solutions at difference concentrations was mixed with thiobarbituric acid (TBA) in screw-capped tubes and heated in a boiling water bath for 45 min. After cooling on ice, the absorbance was recorded at 532 nm and a standard curve was constructed (absorbance versus concentration). For TBARS in the cooked meat model system, 2 g of meat were mixed with 5 ml of trichloroacetic acid (TCA, 10% w/v) in a centrifuge tube, followed by addition of 5 ml of TBA reagent. The mixture was centrifuged at 3000×g for 10 min and the supernatant was filtered. The filtrate was heated in a boiling water bath for 45 min and absorbance was measured at 532 nm after cooling to room temperature. TBARS values in meat samples were obtained using the standard curve as μmol malonaldehyde equivalents/kg of meat. Antioxidant activity was calculated as percentage inhibition of TBARS formation by test compounds.

A short description of series [3]: Lipophilicity, octanol-water partition coefficient by shake flask method. In kind it is physicochemical. The settings on record: 22° C., P=log Ax/(A0−Ax). The procedure: Lipophilicity of the identified EGCG derivatives was determined as octanol-water partition coefficient (P) by a shake flask method. Briefly, a flask containing a mixture of octanol (100 ml) and deionized water (100 ml) was shaken in a shaking waterbath at room temperature (22° C.) for 24 hours. The content was then allowed to stand for 24 hours for separation into two phases. Test compounds (0.2 μmol) were dissolved in 5 ml of the upper phase (pre-saturated octanol), and the absorbance (A0) was read at 280 nm. A blank with no sample was prepared. Five milliliters of the bottom phase (pre-saturated water) were added afterwards, and the mixtures were vortexed for 1 min and allowed to stand for 24 hours for separation. Absorbance (Ax) of the upper phase in the vials was measured and octanol-water partition coefficient (P) calculated using the following equation: P=log Ax/(A0−Ax), where blank-corrected absorbance was used.

A word on the logP: it is a log measure of how a compound divides between an organic and an aqueous phase.

SMILES strings stand for the structures. Marks after values point to notes of the source that are not given here.

For the compound `CCC=CCC=CCC=CCC=CCC=CCCCC(=O)Oc1cc(C(=O)OC2Cc3c(O)cc(O)cc3OC2c2cc(OC(=O)CCCC=CCC=CCC=CCC=CCC=CCC)c(O)c(OC(=O)CCCC=CCC=CCC=CCC=CCC=CCC)c2)cc(OC(=O)CCCC=CCC=CCC=CCC=CCC=CCC)c1O` (stereo not drawn) [Compound 1b], the “Inhibition of COX-2 protein expression” value in series [1] is recorded as “decreased in the order of 1a>1b>EGCG>1c”. For the same compound, the “Inhibition of TBARS formation in cooked pork” value (“Inhibition of TBARS formation” for short) in series [2] is on record as 80.5 ± 0.80^bc %. The “Lipophilicity (partition coefficient, P)” value in series [3] is reported as 1.10 ± 0.06 ^b.
The matching figures for `CCC=CCC=CCC=CCC=CCC=CCC=CCCC(=O)Oc1cc(C(=O)OC2Cc3c(O)cc(O)cc3OC2c2cc(OC(=O)CCC=CCC=CCC=CCC=CCC=CCC=CCC)c(O)c(OC(=O)CCC=CCC=CCC=CCC=CCC=CCC=CCC)c2)cc(OC(=O)CCC=CCC=CCC=CCC=CCC=CCC=CCC)c1O` (stereo not drawn) [Compound 1c]: “decreased in the order of 1a>1b>EGCG>1c”, 78.4 ± 1.62^c % and 1.03 ± 0.10 ^b.
As for `CCCCCCCCCCCCCCCCCC(=O)Oc1cc(C(=O)OC2Cc3c(O)cc(O)cc3OC2c2cc(OC(=O)CCCCCCCCCCCCCCCCC)c(O)c(OC(=O)CCCCCCCCCCCCCCCCC)c2)cc(OC(=O)CCCCCCCCCCCCCCCCC)c1O` (stereo not drawn) [Compound 1a, EGCG stearate], in series [1], the “Inhibition of COX-2 protein expression” value is reported as “decreased in the order of 1a>1b>EGCG>1c”. In series [2], the “Inhibition of TBARS formation” value was 86.3 ± 2.10^a %. In series [3], this compound showed a logP of 1.42 ± 0.02.
`O=C(O[C@@H]1Cc2c(O)cc(O)cc2O[C@@H]1c1cc(O)c(O)c(O)c1)c1cc(O)c(O)c(O)c1` [EGCG, Epigallocatechin gallate, reference compound]: the “Inhibition of COX-2 protein expression” value in series [1] is reported as “decreased in the order of 1a>1b>EGCG>1c”. For the same compound, the “Inhibition of TBARS formation” value in series [2] was 71.9 ± 1.56^d %. The same compound displayed a logP in series [3] of 0.48 ± 0.01.

The values above are taken from US9018248B2, “Fatty acid derivatives of catechins and methods of their use” (Genesis Group Inc., priority 2010, dated 2015).
